Key:
Assay type in all cases: functional
[1] = Cytotoxicity against human HCT116 cells assessed as growth inhibition at 100 uM after 2 days by MTT assay; conditions: HCT-116, 48 h, read-out: GI
[2] = Cytotoxicity against human HCT116 cells assessed as growth inhibition at 10 uM after 2 days by MTT assay; conditions: HCT-116, 48 h, read-out: GI
[3] = Cytotoxicity against human SKBR3 cells assessed as growth inhibition at 100 uM after 2 days by MTT assay; conditions: SK-BR-3, 48 h, read-out: GI
[4] = Cytotoxicity against human SKBR3 cells assessed as growth inhibition at 10 uM after 2 days by MTT assay; conditions: SK-BR-3, 48 h, read-out: GI
K562 = assay: Antiproliferative activity against human K562 cells assessed as cell growth at 10^-5 M after 48 hrs by sulforhodamine B assay; conditions: K562, 48 h, read-out: Activity
[5] = Antiproliferative activity against human MOLT4 cells assessed as cell growth at 10^-5 M after 48 hrs by sulforhodamine B assay; conditions: MOLT-4, 48 h, read-out: Activity
[6] = Antiproliferative activity against human RPMI8226 cells assessed as cell growth at 10^-5 M after 48 hrs by sulforhodamine B assay; conditions: RPMI-8226, 48 h, read-out: Activity
EKVX = assay: Antiproliferative activity against human EKVX cells assessed as cell growth at 10^-5 M after 48 hrs by sulforhodamine B assay; conditions: read-out: Activity
[7] = Antiproliferative activity against human HOP62 cells assessed as cell growth at 10^-5 M after 48 hrs by sulforhodamine B assay; conditions: HOP-62, 48 h, read-out: Activity
NCI-H226 = assay: Antiproliferative activity against human NCI-H226 cells assessed as cell growth at 10^-5 M after 48 hrs by sulforhodamine B assay; conditions: NCI-H226, 48 h, read-out: Activity
NCI-H23 = assay: Antiproliferative activity against human NCI-H23 cells assessed as cell growth at 10^-5 M after 48 hrs by sulforhodamine B assay; conditions: NCI-H23, 48 h, read-out: Activity
NCI-H322M = assay: Antiproliferative activity against human NCI-H322M cells assessed as cell growth at 10^-5 M after 48 hrs by sulforhodamine B assay; conditions: read-out: Activity
NCI-H522 = assay: Antiproliferative activity against human NCI-H522 cells assessed as cell growth at 10^-5 M after 48 hrs by sulforhodamine B assay; conditions: NCI-H522, 48 h, read-out: Activity
[8] = Antiproliferative activity against human COLO205 cells assessed as cell growth at 10^-5 M after 48 hrs by sulforhodamine B assay; conditions: COLO 205, 48 h, read-out: Activity
[9] = Antiproliferative activity against human HCT116 cells assessed as cell growth at 10^-5 M after 48 hrs by sulforhodamine B assay; conditions: HCT-116, 48 h, read-out: Activity
[10] = Antiproliferative activity against human HCT15 cells assessed as cell growth at 10^-5 M after 48 hrs by sulforhodamine B assay; conditions: HCT-15, 48 h, read-out: Activity
[11] = Antiproliferative activity against human SW620 cells assessed as cell growth at 10^-5 M after 48 hrs by sulforhodamine B assay; conditions: SW-620, 48 h, read-out: Activity
[12] = Antiproliferative activity against human SF268 cells assessed as cell growth at 10^-5 M after 48 hrs by sulforhodamine B assay; conditions: SF-268, 48 h, read-out: Activity
[13] = Antiproliferative activity against human SF295 cells assessed as cell growth at 10^-5 M after 48 hrs by sulforhodamine B assay; conditions: SF-295, 48 h, read-out: Activity
[14] = Antiproliferative activity against human SF539 cells assessed as cell growth at 10^-5 M after 48 hrs by sulforhodamine B assay; conditions: SF-539, 48 h, read-out: Activity
[15] = Antiproliferative activity against human SNB19 cells assessed as cell growth at 10^-5 M after 48 hrs by sulforhodamine B assay; conditions: SNB-19, 48 h, read-out: Activity
[16] = Antiproliferative activity against human SNB75 cells assessed as cell growth at 10^-5 M after 48 hrs by sulforhodamine B assay; conditions: SNB-75, 48 h, read-out: Activity
U-251 = assay: Antiproliferative activity against human U251 cells assessed as cell growth at 10^-5 M after 48 hrs by sulforhodamine B assay; conditions: U-251, 48 h, read-out: Activity
Malme-3M = assay: Antiproliferative activity against human MALME-3M cells assessed as cell growth at 10^-5 M after 48 hrs by sulforhodamine B assay; conditions: read-out: Activity
M14 = assay: Antiproliferative activity against human M14 cells assessed as cell growth at 10^-5 M after 48 hrs by sulforhodamine B assay; conditions: M14, 48 h, read-out: Activity
SK-MEL-2 = assay: Antiproliferative activity against human SK-MEL-2 cells assessed as cell growth at 10^-5 M after 48 hrs by sulforhodamine B assay; conditions: SK-MEL-2, 48 h, read-out: Activity
[17] = Antiproliferative activity against human OVCAR4 cells assessed as cell growth at 10^-5 M after 48 hrs by sulforhodamine B assay; conditions: OVCAR-4, 48 h, read-out: Activity
[18] = Antiproliferative activity against human NCI-ADR-RES cells assessed as cell growth at 10^-5 M after 48 hrs by sulforhodamine B assay; conditions: read-out: Activity
[19] = Antiproliferative activity against human SKOV3 cells assessed as cell growth at 10^-5 M after 48 hrs by sulforhodamine B assay; conditions: SK-OV-3, 48 h, read-out: Activity
ACHN = assay: Antiproliferative activity against human ACHN cells assessed as cell growth at 10^-5 M after 48 hrs by sulforhodamine B assay; conditions: read-out: Activity
SN12C = assay: Antiproliferative activity against human SN12C cells assessed as cell growth at 10^-5 M after 48 hrs by sulforhodamine B assay; conditions: read-out: Activity
[20] = Antiproliferative activity against human UO31 cells assessed as cell growth at 10^-5 M after 48 hrs by sulforhodamine B assay; conditions: UO-31, 48 h, read-out: Activity
[21] = Antiproliferative activity against human PC3 cells assessed as cell growth at 10^-5 M after 48 hrs by sulforhodamine B assay; conditions: PC-3, 48 h, read-out: Activity
[22] = Antiproliferative activity against human DU145 cells assessed as cell growth at 10^-5 M after 48 hrs by sulforhodamine B assay; conditions: DU-145, 48 h, read-out: Activity
[23] = Antiproliferative activity against human Hs 578T cells assessed as cell growth at 10^-5 M after 48 hrs by sulforhodamine B assay; conditions: read-out: Activity
[24] = Antiproliferative activity against human BT549 cells assessed as cell growth at 10^-5 M after 48 hrs by sulforhodamine B assay; conditions: BT-549, 48 h, read-out: Activity
MDA-MB-468 = assay: Antiproliferative activity against human MDA-MB-468 cells assessed as cell growth at 10^-5 M after 48 hrs by sulforhodamine B assay; conditions: MDA-MB-468, 48 h, read-out: Activity

Compound | inhibition of growth at 100 µM [1] [%] | inhibition of growth at 10 µM [2] [%] | inhibition of growth at 100 µM [3] [%] | inhibition of growth at 10 µM [4] [%] | growth at 10 µM (K562) [%] | growth at 10 µM [5] [%] | growth at 10 µM [6] [%] | growth at 10 µM (EKVX) [%] | growth at 10 µM [7] [%] | growth at 10 µM (NCI-H226) [%] | growth at 10 µM (NCI-H23) [%] | growth at 10 µM (NCI-H322M) [%] | growth at 10 µM (NCI-H522) [%] | growth at 10 µM [8] [%] | growth at 10 µM [9] [%] | growth at 10 µM [10] [%] | growth at 10 µM [11] [%] | growth at 10 µM [12] [%] | growth at 10 µM [13] [%] | growth at 10 µM [14] [%] | also measured
CNC(=O)c1cc(Oc2ccc3nc(NC(=O)Nc4ccc(F)cc4F)sc3c2)ccn1 | 86.3 | 56.9 | 79.5 | 61.6 | 71.5 | 82.4 | 72.9 | 89.8 | 60.7 | 52.8 | 47 | 62.2 | 68.7 | 87.1 | 20.7 | 84 | 99.9 | 76.1 | 76.7 | 61.7 | growth at 10 µM [15]: 71.1%; growth at 10 µM [16]: 19.2%; growth at 10 µM (U-251): 37%; growth at 10 µM (Malme-3M): 46.2%; growth at 10 µM (M14): 69.1%; growth at 10 µM (SK-MEL-2): 74.7%; growth at 10 µM [17]: 34.2%; growth at 10 µM [18]: 45.5%; growth at 10 µM [19]: 76.3%; growth at 10 µM (ACHN): 60.6%; growth at 10 µM (SN12C): 69.2%; growth at 10 µM [20]: 91.4%; growth at 10 µM [21]: 65.9%; growth at 10 µM [22]: 65.7%; growth at 10 µM [23]: 44.5%; growth at 10 µM [24]: 100%; growth at 10 µM (MDA-MB-468): 51.2%
CNC(=O)c1cc(Oc2ccc3nc(NC(=O)c4cccc(F)n4)sc3c2)ccn1 | 55.5 | 10.8 | 89.4 | 12.5 | 77.5 | 80.8 | 70.4 | 90 | 90 | 76.3 | 83 | 92.8 | 69.8 | 105 | 80.5 | 92.2 | 105 | 89.6 | 89.1 | 96.6 | growth at 10 µM [15]: 88.6%; growth at 10 µM [16]: 105%; growth at 10 µM (U-251): 79.9%; growth at 10 µM (Malme-3M): 98.2%; growth at 10 µM (M14): 91.8%; growth at 10 µM (SK-MEL-2): 110%; growth at 10 µM [17]: 76%; growth at 10 µM [18]: 88.8%; growth at 10 µM [19]: 116%; growth at 10 µM (ACHN): 94.5%; growth at 10 µM (SN12C): 84.9%; growth at 10 µM [20]: 67.1%; growth at 10 µM [21]: 73%; growth at 10 µM [22]: 99.2%; growth at 10 µM [23]: 92.7%; growth at 10 µM [24]: 74.6%; growth at 10 µM (MDA-MB-468): 71.3%
CNC(=O)c1cc(Oc2ccc3nc(NC(=O)Nc4ccc(C(F)(F)F)cc4)sc3c2)ccn1 | 74.9 | 64.8 | 79.6 | 69.9 | 76.3 | 73.3 | 70.4 | 53.5 | 67.3 | 85.6 | 63.4 | 80.5 | 42.4 | 58.8 | 7.67 | 54.2 | 37.9 | 65 | 63.2 | 82.2 | growth at 10 µM [15]: 79.3%; growth at 10 µM [16]: 29.1%; growth at 10 µM (U-251): 22.4%; growth at 10 µM (Malme-3M): 20.8%; growth at 10 µM (M14): 35.8%; growth at 10 µM (SK-MEL-2): 92.9%; growth at 10 µM [17]: 37.7%; growth at 10 µM [18]: 58.4%; growth at 10 µM [19]: 105%; growth at 10 µM (ACHN): 73.4%; growth at 10 µM (SN12C): 71.2%; growth at 10 µM [20]: 65%; growth at 10 µM [21]: 58.8%; growth at 10 µM [22]: 48.9%; growth at 10 µM [23]: 30%; growth at 10 µM [24]: 62.3%; growth at 10 µM (MDA-MB-468): 49.9%
CNC(=O)c1cc(Oc2ccc3nc(NC(=O)Nc4ccc(Cl)c(Cl)c4)sc3c2)ccn1 | 91.9 | 69.8 | 92.6 | 69 | 55 | 76 | 9 | 16 | -79 | -56 | 2 | -4 | 20 | 16 | -50 | -19 | 42 | -57 | -81 | -49 | growth at 10 µM [15]: -67%; growth at 10 µM [16]: -69%; growth at 10 µM (U-251): -84%; growth at 10 µM (Malme-3M): -71%; growth at 10 µM (M14): -47%; growth at 10 µM (SK-MEL-2): -30%; growth at 10 µM [17]: -68%; growth at 10 µM [18]: -43%; growth at 10 µM [19]: -74%; growth at 10 µM (ACHN): -30%; growth at 10 µM (SN12C): 14%; growth at 10 µM [20]: -72%; growth at 10 µM [21]: -53%; growth at 10 µM [22]: -25%; growth at 10 µM [23]: -23%; growth at 10 µM [24]: 26%; growth at 10 µM (MDA-MB-468): -36%
CNC(=O)c1cc(Oc2ccc3nc(NC(=O)c4ccc5c(c4)OCCO5)sc3c2)ccn1 | 49.9 | 10.5 | 62.3 | 50.7 | 91.2 | 94.7 | 97.7 | 99 | 104 | 99.6 | 90 | 99 | 99.6 | 103 | 89.6 | 105 | 107 | 96.6 | 99.7 | 100 | growth at 10 µM [15]: 101%; growth at 10 µM [16]: 95.8%; growth at 10 µM (U-251): 45.5%; growth at 10 µM (Malme-3M): 92.5%; growth at 10 µM (M14): 100%; growth at 10 µM (SK-MEL-2): 113%; growth at 10 µM [17]: 97.5%; growth at 10 µM [18]: 95.8%; growth at 10 µM [19]: 101%; growth at 10 µM (ACHN): 106%; growth at 10 µM (SN12C): 107%; growth at 10 µM [20]: 94.7%; growth at 10 µM [21]: 95.8%; growth at 10 µM [22]: 98.5%; growth at 10 µM [23]: 112%; growth at 10 µM [24]: 89.8%; growth at 10 µM (MDA-MB-468): 108%

Reference: ChEMBL document CHEMBL3797052 (Eur J Med Chem, 2016)
